Results as given in patent US20080275036A1, “Prevention and treatment of cardiac conditions” (APT Pharmaceuticals, Inc., priority 2007, published 2008).
“Also recorded” adds a separate entry of the source. Where two headings read alike, the source gives them in different places.

What was measured:
[1] = cited from earlier work; for solubility in polar solvents: ethanol and methanol
[2] = tested on: single guinea-pig ventricular myocytes; experiment: Action potential recording in single guinea-pig ventricular myocytes; type: cell-based; settings: for action potential duration (effect in words): superfused 10 to 30 minutes
Procedure: Myocytes were isolated after perfusion of the heart with a physiological salt solution containing reduced calcium and 0.8 mg/mL of collagenase Type 1 (Worthington Biochemicals).
Action potentials were recorded from single guinea-pig ventricular myocytes using the standard control conditions and criteria as adopted by CCTT Ltd. (see http://www.cctt.ltd.uk/ap1.htm). Briefly, action potentials were recorded using conventional glass microelectrodes filled with 1 M KMeSO4 and 10 mM KCl. Electrode resistances were in the range of 40 to 60 MΩ. An Axoclamp 2B (Axon Instruments Inc) amplifier was used for electrical recording. Action potentials were continuously stimulated by application of a brief (1-2 ms) current stimuli applied via the intracellular microelectrode in ‘bridge’ mode. Following penetration of the cell with the microelectrode, a stabilisation period of at least 5 min was allowed before recordings were started. The frequency of stimulation was 1 Hz. Recorded signals were digitised at a sampling frequency of 5 kHz and stored for subsequent off line analysis. Action potential signals were continuously monitored online using an oscilloscope (Tektronix digital storage oscilloscope) to check for development of effects of dexrazoxane. All recordings are made at 36±1° C.
The stability of several parameters of the action potential profile (resting potential, action potential amplitude and action potential duration) was ensured before recordings were commenced. Resting potential was measured over a 5-10 ms period before the stimulus artefact and values for the resting potential falling between −75 to −85 mV were taken as normal. Action potential amplitude was measured following the stimulus artefact and values falling between 110 to 130 mV were taken as normal.
All data are presented as mean ±SEM. The effect of dexrazoxane on action potential characteristics was assessed using Student's t-test (MicroSoft Excel) and P<0.05 was taken to indicate statistical significance.
Action potential duration was measured from the peak amplitude of the action potential to 90% repolarisation level (APD90), and values for APD90 falling between 150 to 300 ms were taken as normal. Parameters measured in this study were action potential duration at 40, and 90% repolarisation levels (APD40 and APD90) using Clampfit 9.0.
For each cell, APD40 and APD90 values were calculated in the absence (control) and presence of a drug. As an index of ‘Triangulation’ APD90-APD40, (APD90-40 ms) in the absence (APD90-40 control) and presence of dexrazoxane (APD90-40 drug) were calculated. This was normalised to the starting (control) APD90 to express APD90-40 duration as a % of control APD90. Calculations were made for each cell individually; the values for each drug concentration were then averaged.

[3] = tested on: isolated, perfused guinea pig heart; experiment: Perfusion of doxorubicin and dexrazoxane in the isolated, perfused guinea pig heart (Langendorff); settings: for % change in MAP duration / % change in QTc / Cardiac rate / Cor flow / LV dp/dt max / LV dpdt (relax) / LV peak systolic pressure / LVEDP / MAP Duration / QTcF: 30 min of perfusion
Procedure: Perfusion studies of doxorubicin and dexrazoxane in the isolated, perfused guinea pig heart were performed similarly as above. The following parameters were recorded continuously: electrocardiogram (ECG), monophasic action potentials (MAP), perfusion pressure, left ventricular pressure and coronary flow. These effects could be related to some modifications of cardiac electrophysiology (changes in PR, QRS, QT and RR intervals, proarrhythmic effects, Torsade de pointes . . . ), of coronary resistance and/or of cardiac contraction or inotropism (contractility or relaxation troubles).
Stock solutions (10^−2M, 3×10^−2M) in H20 for each drug were prepared each day of the experiment and a dilution (1/1000) done in the perfusion buffer in order to get the appropriate concentrations:
The buffer used in the experiment was KREBS-[…] buffer (Sigma K-3753) to which was added sodium bicarbonate (Sigma S5761) 25 mM and calcium chloride dihydrate (Sigma C8106) 1.8 mM.
The ECG (2 electrodes: on the apex and closed to the right auricular) and the MAP (electrode on the epicardium) were recorded. PR, QRS, QT and RR were measured and QTc (Fridericia; QTc=QT/(RR) ⅓ in ms) was calculated.
The coronary flow (mL/min) is indicated by the perfusion pump. In this model, the perfusion pressure was constant.
Diastolic pressure (mmHg), systolic pressure (mmHg), differential pressure (syst-diast) (mmHg), mean pressure (mmHg), dP/dt min (mmHg/sec) dP/dt max (mmHg/sec) and cardiac frequency (beat per minute: BPM) were measured. A modification of the inotropism can be a problem of cardiac contractility (if modified systolic pressure and dP/dt max) or relaxation (if modified diastolic pressure and dP/dt min). From the left ventricular pressure, the following were calculated: heart rate (frequency of cardiac contractions), dP/dt min and dP/dt max. An acquisition unit MP150WSW with Acknowledge software (Biopac, USA) was used to continuously record all the signals (perfusion pressure, coronary flow, left ventricular pressure, ECG and MAP) through a PC computer. In each group (n=4 hearts), increasing concentrations of compound were infused according to the following design:
For each group, the data are expressed as mean ±S.E.M, % of variation compared to D0 and delta variation from D0. PR, QRS, QT and RR are measured on the same period but on a signal which results from 5 cycles.
On all the curves, the mean value is measured on 30 seconds in the last minute of perfusion for the following parameters: […]

[4] = tested on: isolated guinea pig myocytes; experiment: Action potential properties in isolated guinea pig myocytes; type: cell-based; settings: for action potential duration (effect in words): over the tested concentrations
[5] = cited from earlier work
[6] = tested on: Langendorff heart preparations; experiment: Heart rate variability after total flow occlusion in stable Langendorff heart preparations; settings: 10 μM, 30 min
[7] = tested on: single ventricular myocytes; experiment: Unloaded cell shortening (UCS) of single ventricular myocytes; settings: 10 μM
[8] = tested on: isolated guinea pig myocytes; experiment: Calcium transients in isolated guinea pig myocytes; type: cell-based; settings: for calcium transients (effect in words): over the tested concentrations
Procedure: Calcium transients were measured during activation in isolated guinea pig myocytes. […] This increase in calcium transient without an action potential increase indicates an effect on calcium cycling proteins.

[9] = doxorubicin perfusion, 30 minute time point

SMILES: CC(CN1CC(=O)NC(=O)C1)N1CC(=O)NC(=O)C1 (racemic) [razoxane]
- solubility in 0.1 N HCl ([1]; 0.1 N HCl): sparingly soluble
- solubility in non-polar, organic solvents [1]: practically insoluble
- solubility in polar solvents [1]: slightly soluble

SMILES: C[C@@H](CN1CC(=O)NC(=O)C1)N1CC(=O)NC(=O)C1 [Dexrazoxane, (S)-4,4′-(1-methyl-1,2-ethanediyl)bis-2,6-piperazinedione]
- decrease in APD40 ([2]; 10 μM in superfusion solution, n=3, P<0.005): 18±4%
- APD90-40 duration (index of triangulation) ([2]; 10 μM superfusion): did not significantly alter
- action potential duration (APD90) ([2]; 10 μM, 27 minutes, control 212±9 ms): 168 ± 12 ms
- shortening of APD90 ([2]; 10 μM, perfusion 27 minutes, n=4, P<0.005): 18±3%
- action potential duration (effect in words) ([2]; 10 μM): shortened action potential duration
- action potential duration (effect in words) ([2]; 10 μM, listed as dexrazoxane): shortened action potential duration; also recorded: caused shortening of action potential duration
- APD40 ([2]; 10 μM, control 175±8 ms): 136 ± 15 ms
- % change in MAP duration ([3]; DOX 3 * 10^−5 mM): 0.0%
- % change in QTc ([3]; DOX 3 * 10^−5 mM): −1.7 % change
- Cardiac rate ([3]; DOX 3 * 10^−5 mM): 200 Beats/min
- Cor flow ([3]; DOX 3 * 10^−5 mM): 14.6 mL/min
- LV dp/dt max ([3]; DOX 3 * 10^−5 mM): 1041 mmHg sec^−1
- LV dpdt (relax) ([3]; DOX 3 * 10^−5 mM): −1022 mmHg sec^−1
- LV peak systolic pressure ([3]; DOX 3 * 10^−5 mM): 82 mmHg
- LVEDP ([3]; DOX 3 * 10^−5 mM): 5 mmHg
- MAP Duration ([3]; DOX 3 * 10^−5 mM): 143 ms
- QTcF ([3]; DOX 3 * 10^−5 mM): 237 ms
- % change in MAP duration ([3]; DOX 10^−5 mM): 0%
- % change in QTc ([3]; DOX 10^−5 mM): −2.1 % change
- Cardiac rate ([3]; DOX 10^−5 mM): 203 Beats/min
- Cor flow ([3]; DOX 10^−5 mM): 14 mL/min
- LV dp/dt max ([3]; DOX 10^−5 mM): 1238 mmHg sec^−1
- LV dpdt (relax) ([3]; DOX 10^−5 mM): −1139 mmHg sec^−1
- LV peak systolic pressure ([3]; DOX 10^−5 mM): 94 mmHg
- LVEDP ([3]; DOX 10^−5 mM): 5 mmHg
- MAP Duration ([3]; DOX 10^−5 mM): 139 ms
- QTcF ([3]; DOX 10^−5 mM): 236 ms
- LVEDP (effect in words) ([3]; dexrazoxane added to the doxorubicin perfusion): did not contribute
- QTcF increase by doxorubicin (effect in words) ([3]; dexrazoxane added, both doxorubicin doses): reversed
- APD50 ([4]; 10 μM): 512 ± 47 ms
- APD90 ([4]; 10 μM): 573 ± 43 ms
- Action potentials, Peak amplitude ([4]; 10 μM): 119 ± 2 mV
- Action potentials, Resting potential ([4]; 10 μM): −69 ± 0 mV
- APD50 ([4]; 30 μM): 493 ± 36 ms
- APD90 ([4]; 30 μM): 564 ± 33 ms
- Action potentials, Peak amplitude ([4]; 30 μM): 121 ± 2 mV
- Action potentials, Resting potential ([4]; 30 μM): −68 ± 2 mV
- APD50 ([4]; 100 μM): 548 ± 45 ms
- APD90 ([4]; 100 μM): 619 ± 39 ms
- Action potentials, Peak amplitude ([4]; 100 μM): 124 ± 1 mV
- Action potentials, Resting potential ([4]; 100 μM): −66 ± 1 mV
- action potential duration (effect in words) [4]: without inducing a change
- stability of lyophilized drug without significant decomposition [5]: ~12 months
- coefficient of variation (heart rate variability) at reperfusion ([6]; control 2.9±0.2, n=3, P=ns): 3.3±1.1
- increase of coefficient of variation (heart rate variability) during reperfusion ([6]; reperfusion after 15 min total flow ischemia, n=3): 77%
- amplitude of UCS / contraction (effect in words) ([7]; 27 minutes): did not significantly alter
- peak amplitude of UCS, absolute cell shortening ([7]; 27 minutes, n=3, control 9.4±3.4 μm, P=ns): 10.7±3.2 μm
- UCS as percentage of resting cell length ([7]; n=3, control 8.5±2.7% RCL, P=ns): 8.0±2.0 % RCL
- Ca^2+ transients, Peak amplitude (ΔF/F0) ([8]; 10 μM): 5.2 ± 0.8 ΔF/F0
- Ca^2+ transients, Peak amplitude (ΔF/F0) ([8]; 30 μM): 5.8 ± 1.0 ΔF/F0
- Ca^2+ transients, Peak amplitude (ΔF/F0) ([8]; 100 μM): 5.1 ± 0.6 ΔF/F0
- calcium transients (effect in words) [8]: dose proportional increase
- solubility in 0.1 N HCl ([1]; 0.1 N HCl at 25° C., salt of hydrochloric acid): 35 mg/mL
- solubility in 0.1 N HCl ([1]; 0.1 N HCl): sparingly soluble
- solubility in water ([1]; 25° C.): about 10 mg/ml
- solubility in non-polar, organic solvents [1]: practically insoluble
- solubility in polar solvents [1]: slightly soluble

SMILES: COc1cccc2c1C(=O)c1c(O)c3c(c(O)c1C2=O)C[C@@](O)(C(=O)CO)C[C@@H]3O[C@H]1C[C@H](N)[C@H](O)[C@H](C)O1 [Doxorubicin]
- % change in MAP duration ([3]; DOX 3 * 10^−5 mM): 13.3%
- % change in QTc ([3]; DOX 3 * 10^−5 mM): 11.9 % change
- Cardiac rate ([3]; DOX 3 * 10^−5 mM): 184 Beats/min
- Cor flow ([3]; DOX 3 * 10^−5 mM): 14.4 mL/min
- LV dp/dt max ([3]; DOX 3 * 10^−5 mM): 887 mmHg sec^−1
- LV dpdt (relax) ([3]; DOX 3 * 10^−5 mM): −922 mmHg sec^−1
- LV peak systolic pressure ([3]; DOX 3 * 10^−5 mM): 93 mmHg
- LVEDP ([3]; DOX 3 * 10^−5 mM): 14 mmHg
- MAP Duration ([3]; DOX 3 * 10^−5 mM): 162 ms
- QTcF ([3]; DOX 3 * 10^−5 mM): 272 ms
- % change in MAP duration ([3]; DOX 10^−5 mM): 2.2%
- % change in QTc ([3]; DOX 10^−5 mM): 1.6 % change
- Cardiac rate ([3]; DOX 10^−5 mM): 217 Beats/min
- Cor flow ([3]; DOX 10^−5 mM): 13.4 mL/min
- LV dp/dt max ([3]; DOX 10^−5 mM): 1277 mmHg sec^−1
- LV dpdt (relax) ([3]; DOX 10^−5 mM): −1173 mmHg sec^−1
- LV peak systolic pressure ([3]; DOX 10^−5 mM): 97 mmHg
- LVEDP ([3]; DOX 10^−5 mM): 7 mmHg
- MAP Duration ([3]; DOX 10^−5 mM): 142 ms
- QTcF ([3]; DOX 10^−5 mM): 247 ms
- LVEDP (effect in words) [3, 9]: marked increase
- QTcF (effect in words) [3, 9]: increased
- APD50 ([4]; 30 μM): 553 ± 29 ms
- APD90 ([4]; 30 μM): 626 ± 28 ms
- Action potentials, Peak amplitude ([4]; 30 μM): 120 ± 3 mV
- Action potentials, Resting potential ([4]; 30 μM): −70 ± 3 mV
- APD50 ([4]; 100 μM): 646 ± 26 ms
- Action potentials, Peak amplitude ([4]; 100 μM): 119 ± 2 mV
- Action potentials, Resting potential ([4]; 100 μM): −68 ± 3 mV
- APD50 ([4]; 300 μM): 536 ± 48 ms
- APD90 ([4]; 300 μM): 611 ± 48 ms
- Action potentials, Peak amplitude ([4]; 300 μM): 122 ± 4 mV
- Action potentials, Resting potential ([4]; 300 μM): −69 ± 2 mV
- action potential duration (effect in words) [4]: profound prolongation
- Ca^2+ transients, Peak amplitude (ΔF/F0) ([8]; 30 μM): 3.0 ± 0.7 ΔF/F0
- Ca^2+ transients, Peak amplitude (ΔF/F0) ([8]; 100 μM): 3.1 ± 0.5 ΔF/F0
- Ca^2+ transients, Peak amplitude (ΔF/F0) ([8]; 300 μM): 1.6 ± 0.3 ΔF/F0
- calcium transients (effect in words) [8]: dose related decrease
